Experimental findings from US20240409585A1, “MACROCYCLIC IMMUNOMODULATORS” (priority 2021, published 2024) are described below.

Bridge positions count the residues as written; N and C are the ends. Square brackets hold non-standard residues; d marks the D form. Peptide text beside a SMILES is read from it. * marks the point of attachment. ξ: configuration not given here. Ala(4-isoquinolinyl) = N[C@@H](Cc1cncc2ccccc12)C(=O)O; Phe(4-COOH) = N[C@@H](Cc1ccc(C(=O)O)cc1)C(=O)O; Bip = N[C@@H](Cc1ccc(-c2ccccc2)cc1)C(=O)O; Phe(3-OMe) = COc1cccc(C[C@H](N)C(=O)O)c1; Phe(3-Me) = Cc1cccc(C[C@H](N)C(=O)O)c1; Val(3-OH) = CC(C)(O)[C@H](N)C(=O)O; 4Pal = N[C@@H](Cc1ccncc1)C(=O)O; 2Thi = N[C@@H](Cc1cccs1)C(=O)O; Cha = N[C@@H](CC1CCCCC1)C(=O)O; Cit = NC(=O)NCCC[C@H](N)C(=O)O; Ile(3ξ) = CCC(C)[C@H](N)C(=O)O; Thr(3ξ) = CC(O)[C@H](N)C(=O)O; Carboxymethyl = O=C(O)C*; NMeA = CN[C@@H](C)C(=O)O; Nle = CCCC[C@H](N)C(=O)O; Orn = NCCC[C@H](N)C(=O)O; Dab = NCC[C@H](N)C(=O)O; Dap = NC[C@H](N)C(=O)O

This test addresses T1, PE-labeled human PD-L1-Ig binding to Jurkat cell line over-expressing human PD-1 (Jurkat-PD-1) (Homo sapiens, UniProt Q15116).
T1 construct: expressed in transfected cells; host or cells: Jurkat
In words: Jurkat-PD-1 Cell Binding High-Content Screening Assay (CBA): Method 1. The following applies: Jurkat-hPD-1 cells, PE-labeled PD-L1-Ig 20 nM final; read-out: Jurkat HPDL1 PD1 IC50 (uM) (Method 1).

T1 sequence (Q15116 25-288): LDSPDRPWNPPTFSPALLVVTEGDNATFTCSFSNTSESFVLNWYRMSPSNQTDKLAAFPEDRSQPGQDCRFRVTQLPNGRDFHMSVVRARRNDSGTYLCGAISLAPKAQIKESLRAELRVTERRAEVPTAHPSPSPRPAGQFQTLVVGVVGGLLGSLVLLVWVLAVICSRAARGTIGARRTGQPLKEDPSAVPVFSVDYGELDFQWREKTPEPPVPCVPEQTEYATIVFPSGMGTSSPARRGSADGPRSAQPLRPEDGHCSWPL

As a reminder, the IC50 is the concentration needed to halve the response being measured. In the case of `CC(C)C[C@@H]1NC(=O)[C@H](CCN)NC(=O)[C@@H](CC(C)C)NC(=O)[C@H](C)N(C)C(=O)[C@H](CCCNC(=N)N)NC(=O)[C@H](Cc2ccc(-c3ccccc3)cc2)NC(=O)[C@H](C(C)C)NC(=O)[C@H](Cc2cccs2)NC(=O)[C@H](CC(=O)O)NC(=O)[C@H](Cc2ccc(O)cc2)NC(=O)[C@H](CC(N)=O)NC(=O)CSC[C@@H](C(=O)N[C@@H](C)C(N)=O)NC(=O)[C@H]([C@@H](C)O)NC(=O)[C@H](C(C)C)NC1=O` [Compound 1219] ({CH2CO}-NYD[2Thi]V[Bip]R[NMeA][dL][Dab]LVTCA-NH2; thioether N-14), the IC50 turned out to be 0.26 µM.
For the molecule `COc1cccc(C[C@@H]2NC(=O)[C@H](CC(=O)O)NC(=O)[C@H](Cc3cccc(C)c3)NC(=O)[C@H](CN)NC(=O)CSC[C@@H](C(=O)N[C@@H](C)C(N)=O)NC(=O)[C@@H](CO)NC(=O)[C@H](C(C)C)NC(=O)[C@H](CC(C)C)NC(=O)[C@H](CC(N)=O)NC(=O)[C@@H](C)NC(=O)[C@H](C)N(C)C(=O)[C@H](C(C)C)NC(=O)[C@H](Cc3ccc(-c4ccccc4)cc3)NC(=O)[C@@H](CC(C)C)NC2=O)c1` [Compound 1464] ({CH2CO}-[Dap][Phe(3-Me)]D[Phe(3-OMe)][dL][Bip]V[NMeA][dA]NLV[dS]CA-NH2; thioether N-14), the IC50 amounted to 0.01 µM.
Then `CC(C)C[C@@H]1NC(=O)[C@H](CCN)NC(=O)[C@@H](CC(C)C)NC(=O)[C@H](C)N(C)C(=O)[C@H](CCCNC(=N)N)NC(=O)[C@H](Cc2ccc(-c3ccccc3)cc2)NC(=O)[C@H](C(C)C)NC(=O)[C@H](Cc2cncc3ccccc23)NC(=O)[C@H](CC(=O)O)NC(=O)[C@H](Cc2ccc(O)cc2)NC(=O)[C@H](Cc2ccccc2)NC(=O)CSC[C@@H](C(=O)N[C@@H](C)C(N)=O)NC(=O)[C@H]([C@@H](C)O)NC(=O)[C@H](C(C)C)NC1=O` [Compound 1200] ({CH2CO}-FYD[Ala(4-isoquinolinyl)]V[Bip]R[NMeA][dL][Dab]LVTCA-NH2; thioether N-14), with 0.49 µM.
Then `Cc1cccc(C[C@@H]2NC(=O)[C@H](CC(=O)O)NC(=O)[C@H](Cc3ccc(OCC(=O)O)cc3)NC(=O)[C@H](C(C)C)NC(=O)CSC[C@@H](C(=O)N[C@@H](CN)C(N)=O)NC(=O)[C@H](C(C)O)NC(=O)[C@H](C(C)(C)O)NC(=O)[C@H](CC3CCCCC3)NC(=O)[C@H](CCN)NC(=O)[C@@H](CC(C)C)NC(=O)[C@H](C)N(C)C(=O)[C@H](CCCNC(N)=O)NC(=O)[C@H](Cc3ccc(-c4ccccc4)cc3)NC(=O)[C@H](Cc3ccc(OCC(=O)O)cc3)NC2=O)c1` (stereo partly drawn) [Compound 2167] ({CH2CO}-VY(Carboxymethyl)D[Phe(3-Me)]Y(Carboxymethyl)[Bip][Cit][NMeA][dL][Dab][Cha][Val(3-OH)][Thr(3ξ)]C[Dap]-NH2; thioether N-14), with 0.05 µM.
Then `CC(C)C[C@H]1NC(=O)[C@H](C)N(C)C(=O)[C@H](CCC(=O)O)NC(=O)[C@H](Cc2ccc(-c3ccccc3)cc2)NC(=O)[C@H](C(C)C)NC(=O)[C@H](Cc2c[nH]c3ccccc23)NC(=O)[C@H](CC(=O)O)NC(=O)[C@H](Cc2ccc(O)cc2)NC(=O)[C@H](C(C)O)NC(=O)CSC[C@@H](C(=O)NCC(N)=O)NC(=O)[C@H](C(C)O)NC(=O)[C@H](C(C)C)NC(=O)[C@H](CC2CCCCC2)NC(=O)[C@H](CCN)NC1=O` (stereo partly drawn) [Compound 2095] ({CH2CO}-[Thr(3ξ)]YDWV[Bip]E[NMeA][dL][Dab][Cha]V[Thr(3ξ)]CG-NH2; thioether N-14), with 0.04 µM.
In the case of `CC(C)C[C@@H]1NC(=O)[C@H](CCN)NC(=O)[C@@H](CC(C)C)NC(=O)[C@H](C)N(C)C(=O)[C@H](CCCNC(=N)N)NC(=O)[C@H](Cc2ccc(-c3ccccc3)cc2)NC(=O)[C@H](C(C)C)NC(=O)[C@H](Cc2c[nH]c3ccccc23)NC(=O)[C@H](CC(=O)O)NC(=O)[C@H](Cc2ccc(O)cc2)NC(=O)[C@H](CC(N)=O)NC(=O)CSC[C@@H](C(=O)N[C@@H](CO)C(N)=O)NC(=O)[C@H]([C@@H](C)O)NC(=O)[C@H](C(C)C)NC1=O` [Compound 1179] ({CH2CO}-NYDWV[Bip]R[NMeA][dL][Dab]LVTCS-NH2; thioether N-14), the IC50 turned out to be 0.07 µM.
Then `Cc1cccc(C[C@@H]2NC(=O)[C@H](CC(=O)O)NC(=O)[C@H](Cc3ccc(OCC(=O)O)cc3)NC(=O)[C@H](Cc3ccc(OCC(=O)O)cc3)NC(=O)CSC[C@@H](C(N)=O)NC(=O)[C@H]([C@@H](C)O)NC(=O)[C@H](C(C)C)NC(=O)[C@H](CC3CCCCC3)NC(=O)[C@H](CCN)NC(=O)[C@@H](CC(C)C)NC(=O)[C@H](C)N(C)C(=O)[C@H](Cc3ccc(OCC(=O)O)cc3)NC(=O)[C@H](Cc3ccc(-c4ccccc4)cc3)NC(=O)[C@H](Cc3ccc(OCC(=O)O)cc3)NC2=O)c1` [Compound 1656] ({CH2CO}-Y(Carboxymethyl)Y(Carboxymethyl)D[Phe(3-Me)]Y(Carboxymethyl)[Bip]Y(Carboxymethyl)[NMeA][dL][Dab][Cha]VTC-NH2; thioether N-14), with 0.03 µM; and `CC(C)C[C@@H]1NC(=O)[C@H](CCCCN)NC(=O)[C@@H](CC(C)C)NC(=O)[C@H](C)N(C)C(=O)[C@H](Cc2cnc[nH]2)NC(=O)[C@H](Cc2ccc(-c3ccccc3)cc2)NC(=O)[C@H](C(C)C)NC(=O)[C@H](Cc2c[nH]c3ccccc23)NC(=O)[C@H](CC(=O)O)NC(=O)[C@H](Cc2ccc(O)cc2)NC(=O)[C@H](CC(N)=O)NC(=O)CSC[C@@H](C(=O)N[C@@H](C)C(N)=O)NC(=O)[C@H]([C@@H](C)O)NC(=O)[C@H](C(C)C)NC1=O` [Compound 1481] ({CH2CO}-NYDWV[Bip]H[NMeA][dL]KLVTCA-NH2; thioether N-14), with 0.12 µM; and `CC(C)C[C@@H]1NC(=O)[C@H](Cc2c[nH]c3ccccc23)NC(=O)[C@H](CC(=O)O)NC(=O)[C@H](Cc2ccc(OCC(=O)O)cc2)NC(=O)[C@H](Cc2ccc(OCC(=O)O)cc2)NC(=O)CSC[C@@H](C(=O)N[C@@H](C)C(N)=O)NC(=O)[C@H](CO)NC(=O)[C@H](C(C)C)NC(=O)[C@H](CC(C)C)NC(=O)[C@H](CCN)NC(=O)[C@@H](CC(C)C)NC(=O)[C@H](C)N(C)C(=O)[C@H](C(C)C)NC(=O)[C@H](Cc2ccc(-c3ccccc3)cc2)NC1=O` [Compound 2123] ({CH2CO}-Y(Carboxymethyl)Y(Carboxymethyl)DWL[Bip]V[NMeA][dL][Dab]LVSCA-NH2; thioether N-14), with 0.02 µM.
In the case of `Cc1cccc(C[C@@H]2NC(=O)[C@H](CC(=O)O)NC(=O)[C@H](Cc3ccc(OCC(=O)O)cc3)NC(=O)[C@H](Cc3ccncc3)NC(=O)CSC[C@@H](C(N)=O)NC(=O)[C@H](CCCN)NC(=O)[C@H](C(C)C)NC(=O)[C@H](CC3CCCCC3)NC(=O)[C@H](CCN)NC(=O)[C@@H](CC(C)C)NC(=O)[C@H](C)N(C)C(=O)[C@H](Cc3ccc(OCC(=O)O)cc3)NC(=O)[C@H](Cc3ccc(-c4ccccc4)cc3)NC(=O)[C@H](Cc3ccc(OCC(=O)O)cc3)NC2=O)c1` [Compound 1662] ({CH2CO}-[4Pal]Y(Carboxymethyl)D[Phe(3-Me)]Y(Carboxymethyl)[Bip]Y(Carboxymethyl)[NMeA][dL][Dab][Cha]V[Orn]C-NH2; thioether N-14), the IC50 amounted to 0.01 µM.
Then `CCCC[C@@H]1NC(=O)[C@H](CCCNC(=N)N)NC(=O)[C@@H](CC(C)C)NC(=O)[C@H](C)N(C)C(=O)[C@H](C(C)C)NC(=O)[C@H](Cc2ccc(-c3ccccc3)cc2)NC(=O)[C@H](C(C)C)NC(=O)[C@H](Cc2c[nH]c3ccccc23)NC(=O)[C@H](CC(=O)O)NC(=O)[C@H](Cc2ccc(O)cc2)NC(=O)[C@H](Cc2ccccc2)NC(=O)CSC[C@@H](C(=O)N[C@@H](C)C(N)=O)NC(=O)[C@H]([C@@H](C)O)NC(=O)[C@H](C(C)C)NC1=O` [Compound 1502] ({CH2CO}-FYDWV[Bip]V[NMeA][dL]R[Nle]VTCA-NH2; thioether N-14), with 0.1 µM; and `CCCC[C@@H]1NC(=O)[C@H](CCN)NC(=O)[C@@H](CC(C)C)NC(=O)[C@H](C)N(C)C(=O)[C@H](CCCN)NC(=O)[C@H](Cc2ccc(-c3ccccc3)cc2)NC(=O)[C@H](C(C)C)NC(=O)[C@H](Cc2c[nH]c3ccccc23)NC(=O)[C@H](CC(=O)O)NC(=O)[C@H](Cc2ccc(O)cc2)NC(=O)[C@H](CC(N)=O)NC(=O)CSC[C@@H](C(=O)N[C@@H](C)C(N)=O)NC(=O)[C@H]([C@@H](C)O)NC(=O)[C@H](C(C)C)NC1=O` [Compound 1267] ({CH2CO}-NYDWV[Bip][Orn][NMeA][dL][Dab][Nle]VTCA-NH2; thioether N-14), with 0.26 µM.
Regarding `CC[C@H](C)[C@@H]1NC(=O)[C@H](Cc2ccc(-c3ccccc3)cc2)NC(=O)[C@H](C(C)C)NC(=O)[C@H](Cc2c[nH]c3ccccc23)NC(=O)[C@H](CC(=O)O)NC(=O)[C@H](Cc2ccc(O)cc2)NC(=O)[C@H](CC(N)=O)NC(=O)CSC[C@@H](C(=O)N[C@@H](C)C(N)=O)NC(=O)[C@H]([C@@H](C)O)NC(=O)[C@H](C(C)C)NC(=O)[C@H](CC(C)C)NC(=O)[C@H](CCCNC(=N)N)NC(=O)[C@@H](CC(C)C)NC(=O)[C@H](C)N(C)C1=O` [Compound 1490] ({CH2CO}-NYDWV[Bip]I[NMeA][dL]RLVTCA-NH2; thioether N-14), the IC50 worked out at 0.07 µM.
Then `CCC(C)[C@@H]1NC(=O)[C@H](Cc2ccc(-c3ccccc3)cc2)NC(=O)[C@H](C(C)C)NC(=O)[C@H](Cc2cccc(C)c2)NC(=O)[C@H](CC(=O)O)NC(=O)[C@H](Cc2ccc(C(=O)O)cc2)NC(=O)[C@H](Cc2ccncc2)NC(=O)CSC[C@@H](C(N)=O)NC(=O)[C@H](CCCN)NC(=O)[C@H](C(C)C)NC(=O)[C@H](CC2CCCCC2)NC(=O)[C@H](CCN)NC(=O)[C@@H](CC(C)C)NC(=O)[C@H](C)N(C)C1=O` (stereo partly drawn) [Compound 1899] ({CH2CO}-[4Pal][Phe(4-COOH)]D[Phe(3-Me)]V[Bip][Ile(3ξ)][NMeA][dL][Dab][Cha]V[Orn]C-NH2; thioether N-14), with 0.01 µM.
